Experimental data as given in ChEMBL document CHEMBL1201862, “PubChem BioAssay data set” (2004).
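Protocol summary: plate cells (96-well), add compound at 5 concentrations, incubate 48 h, interpolate endpoints linearly. GI50 = concentration required for 50% inhibition of growth.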 Calls of active or inactive are those of the source. No stated cut-off is given here; in the data, active = GI50 up to about 1.1 µM and inactive = higher.

Key:
Experiment in all cases: NCI-60 cell line screen, 48 h
[1] = tested on: SF-539
[2] = tested on: TK-10
[3] = tested on: HCC 2998
[4] = tested on: 786-0
[5] = tested on: Malme-3M
[6] = tested on: HOP-92
[7] = tested on: K562
[8] = tested on: UO-31
[9] = tested on: SN12C
[10] = tested on: MDA-MB-435
[11] = tested on: SK-MEL-5
[12] = tested on: NCI/ADR-RES
[13] = tested on: CCRF-CEM
[14] = tested on: NCI-H226
[15] = tested on: HOP-62
[16] = tested on: HT-29
[17] = tested on: ACHN
[18] = tested on: SK-OV-3
[19] = tested on: NCI-H23
[20] = tested on: SNB-19
[21] = tested on: T47D
[22] = tested on: MCF7
[23] = tested on: SF-295
[24] = tested on: NCI-H460
[25] = tested on: SK-MEL-2
[26] = tested on: HCT-116
[27] = tested on: MOLT-4
[28] = tested on: IGROV-1
[29] = tested on: MDA-N
[30] = tested on: OVCAR-3
[31] = tested on: A498
[32] = tested on: HCT-15
[33] = tested on: SK-MEL-28
[34] = tested on: EKVX
[35] = tested on: RPMI-8226
[36] = tested on: RXF 393
[37] = tested on: OVCAR-4
[38] = tested on: LOX IMVI
[39] = tested on: DU-145
[40] = tested on: UACC-257
[41] = tested on: KM12
[42] = tested on: Hs-578T
[43] = tested on: CAKI-1
[44] = tested on: NCI-H522
[45] = tested on: A549
[46] = tested on: M14
[47] = tested on: MDA-MB-231
[48] = tested on: PC-3
[49] = tested on: SNB-75
[50] = tested on: COLO 205
[51] = tested on: OVCAR-8
[52] = tested on: SW-620
[53] = tested on: UACC-62
[54] = tested on: SR
[55] = tested on: OVCAR-5
[56] = tested on: SF-268
[57] = tested on: HL-60
[58] = tested on: U-251

COC(=O)CCC(NC(=O)OC(C)(C)C)C(=O)NC(Cc1ccc(NC(=O)CCCC(C)=O)cc1)C(=O)NC(CCC(=O)OC)C(=O)OC (configuration not stated)
GI50 [1]: > 100 µM (inactive) | GI50 [2]: > 100 µM (inactive) | GI50 [3]: > 100 µM (inactive) | GI50 [4]: > 100 µM (inactive) | GI50 [5]: > 100 µM (inactive) | GI50 [6]: > 100 µM (inactive) | GI50 [7]: > 100 µM (inactive) | GI50 [8]: > 100 µM (inactive) | GI50 [9]: > 100 µM (inactive) | GI50 [10]: > 100 µM (inactive) | GI50 [11]: > 100 µM (inactive) | GI50 [12]: > 100 µM (inactive) | GI50 [13]: > 100 µM (inactive) | GI50 [14]: > 100 µM (inactive) | GI50 [15]: > 100 µM (inactive) | GI50 [16]: > 100 µM (inactive) | GI50 [17]: > 100 µM (inactive) | GI50 [18]: > 100 µM (inactive) | GI50 [19]: > 100 µM (inactive) | GI50 [20]: > 100 µM (inactive) | GI50 [21]: > 100 µM (inactive) | GI50 [22]: > 100 µM (inactive) | GI50 [23]: > 100 µM (inactive) | GI50 [24]: > 100 µM (inactive) | GI50 [25]: > 100 µM (inactive) | GI50 [26]: > 100 µM (inactive) | GI50 [27]: > 100 µM (inactive) | GI50 [28]: > 100 µM (inactive) | GI50 [29]: > 100 µM (inactive) | GI50 [30]: > 100 µM (inactive) | GI50 [31]: > 100 µM (inactive) | GI50 [32]: > 100 µM | GI50 [33]: > 100 µM (inactive) | GI50 [34]: > 100 µM (inactive) | GI50 [35]: > 100 µM (inactive) | GI50 [36]: > 100 µM (inactive) | GI50 [37]: > 100 µM (inactive) | GI50 [38]: > 100 µM (inactive) | GI50 [39]: > 100 µM (inactive) | GI50 [40]: > 100 µM (inactive) | GI50 [41]: > 100 µM (inactive) | GI50 [42]: > 100 µM (inactive) | GI50 [43]: > 100 µM (inactive) | GI50 [44]: > 100 µM (inactive) | GI50 [45]: > 100 µM (inactive) | GI50 [46]: > 100 µM (inactive) | GI50 [47]: > 100 µM (inactive) | GI50 [48]: > 100 µM (inactive) | GI50 [49]: > 100 µM (inactive) | GI50 [50]: > 100 µM (inactive) | GI50 [51]: > 100 µM (inactive) | GI50 [52]: > 100 µM (inactive) | GI50 [53]: > 100 µM (inactive) | GI50 [54]: > 100 µM (inactive) | GI50 [55]: > 100 µM (inactive) | GI50 [56]: > 100 µM (inactive)

O=S1(=O)OCCOS(=O)(=O)C1Cc1cccc2ccccc12
GI50 [1]: 22.3 µM (inactive) | GI50 [2]: 30.7 µM (inactive) | GI50 [3]: 20.1 µM (inactive) | GI50 [4]: 21.4 µM (inactive) | GI50 [57]: 11.6 µM (inactive) | GI50 [5]: 16.1 µM (inactive) | GI50 [6]: 17.9 µM (inactive) | GI50 [7]: 15.6 µM (inactive) | GI50 [58]: 18.2 µM (inactive) | GI50 [8]: 23.2 µM (inactive) | GI50 [9]: 20.6 µM (inactive) | GI50 [10]: 16.2 µM (inactive) | GI50 [11]: 14.4 µM (inactive) | GI50 [12]: 20.3 µM (inactive) | GI50 [13]: 14.2 µM (inactive) | GI50 [14]: 7.83 µM (inactive) | GI50 [15]: 23.9 µM (inactive) | GI50 [16]: 25.5 µM (inactive) | GI50 [17]: 31.5 µM (inactive) | GI50 [18]: 27.5 µM (inactive) | GI50 [19]: 29.9 µM (inactive) | GI50 [20]: 25 µM (inactive) | GI50 [21]: 39.4 µM (inactive) | GI50 [22]: 14.4 µM (inactive) | GI50 [23]: 32.3 µM (inactive) | GI50 [24]: 17 µM (inactive) | GI50 [25]: 51.3 µM (inactive) | GI50 [26]: 20.3 µM (inactive) | GI50 [27]: 23.7 µM (inactive) | GI50 [28]: 13.9 µM (inactive) | GI50 [29]: 21.2 µM (inactive) | GI50 [31]: 14.1 µM (inactive) | GI50 [32]: 26.5 µM | GI50 [33]: 2.69 µM (inactive) | GI50 [34]: 30.3 µM (inactive) | GI50 [35]: 39.4 µM (inactive) | GI50 [36]: 3.37 µM (inactive) | GI50 [37]: 19.8 µM (inactive) | GI50 [38]: 20.5 µM (inactive) | GI50 [39]: 12 µM (inactive) | GI50 [40]: 14.1 µM (inactive) | GI50 [42]: 29.9 µM (inactive) | GI50 [43]: 32.6 µM (inactive) | GI50 [44]: 18.9 µM (inactive) | GI50 [45]: 35.2 µM (inactive) | GI50 [46]: 20.7 µM (inactive) | GI50 [47]: 23 µM (inactive) | GI50 [48]: 33.2 µM (inactive) | GI50 [49]: 29.6 µM (inactive) | GI50 [50]: 13.9 µM (inactive) | GI50 [51]: 17.7 µM (inactive) | GI50 [52]: 30.6 µM (inactive) | GI50 [53]: 22.2 µM (inactive) | GI50 [54]: 25.2 µM (inactive) | GI50 [55]: 24.3 µM (inactive) | GI50 [56]: 14.5 µM (inactive)
